As usually defined, the IC50 is the midpoint of a concentration-inhibition curve. Read a low IC50 as higher potency.

Results on 6 compounds are retold here after PMC7193943 (European journal of medicinal chemistry, 2019).

For data set [1], the system named is P-glycoprotein efflux transporter. The following applies: Caco-2 colorectal adenocarcinoma cells; cited from earlier work.
Data set [2] has as its system H2228 cells.
For data set [3] the following is noted: mice, 24 h after oral administration; cited from earlier work.
A short description of data set [4]: Solubility in aqueous media. The format is physicochemical.
The test system of data set [5] is H441 cells. Put plainly: Cytotoxicity assay. The settings on record: 72 h. The class given is cell-based, human.
Data set [6] deals with ALK-positive H2228 and ALK-negative H441 cells. The data set can be described thus: Live cell tracer uptake assay. The format is cell-based, human. The following applies: after 30 min of incubation.

Consider `CCc1cc2c(cc1N1CCC(N3CCOCC3)CC1)C(C)(C)c1[nH]c3cc(C#N)ccc3c1C2=O` [Alectinib, 9-Ethyl-6,6-dimethyl-8-[4-(morpholin-4-yl)piperidin-1-yl]-11-oxo-6,11-dihydro-5H-benzo[b]carbazole-3-carbonitrile], for which the “transport by the P-glycoprotein efflux transporter” value in data set [1] was “not transported”.
In turn, `Cc1cc(Nc2ncc(Cl)c(Nc3ccccc3S(=O)(=O)C(C)C)n2)c(OC(C)C)cc1C1CCNCC1` [Ceritinib, 5-Chloro-N2-(2-isopropoxy-5-methyl-4-(piperidin-4-yl)phenyl)-N4-(2-(isopropylsulfonyl)phenyl)pyrimidine-2,4-diamine, reference compound] yielded an IC50 in data set [2] of 2900 nM. For the same compound, the “drug found in the brain” value in data set [3] is 0.4%.
For `C[C@@H](Oc1cc(-c2cnn(C3CCN(CCF)CC3)c2)cnc1N)c1c(Cl)ccc(F)c1Cl` [Compound 1, 3-((R)-1-(2,6-dichloro-3-fluorophenyl)ethoxy)-5-(1-(fluoroethylpiperidin-4-yl)-1H-pyrazol-4-yl)pyridin-2-amine], in data set [2], the “fold loss of potency versus parent drug” value was “less than 3 fold”. Moreover, the “solubility in saline or PBS solutions” value in data set [4] is “not soluble”.
For the compound `CCc1cc2c(cc1N1CCC(N3CCOCC3)CC1)C(C)(C)c1c(c3ccc(C#N)cc3n1CCF)C2=O` [Compound 4, 9-Ethyl-6,6-dimethyl-8-[4-(morpholin-4-yl)piperidin-1-yl]-11-oxo-6,11-dihydro-5(2-fluoroethyl)-benzo[b]carbazole-3-carbonitrile], the “solubility in saline or PBS solutions” value in data set [4] is listed as “not soluble”. Further, the “effect on ALK-negative H441 cells (cytotoxicity)” value in data set [5] is recorded as “no substantial effect”.
For `Cc1cc(Nc2ncc(Cl)c(Nc3ccccc3S(=O)(=O)C(C)C)n2)c(OC(C)C)cc1C1CCN(CCF)CC1` [Compound 9, 5-Chloro-N2–(2-isoprpoxy-5-methyl-4-(1-fluoroethylpiperidin-4-yl)phenyl)-N4-[2-(propane-2-sulfonyl)phenyl]pyrimidine-2,4-diamine], in data set [2], the “fold loss of potency versus parent drug” value was around 10 fold. For the same compound, the “solubility in saline or PBS solutions” value in data set [4] is “not soluble”.
Consider `Cc1cc(Nc2ncc(Cl)c(Nc3ccccc3S(=O)(=O)C(C)C)n2)c(OC(C)C)cc1C1CCN(CCF)CC1` [[^18F]9], for which the “cell-associated radioactivity, H2228 vs H441” value in data set [6] is given as “higher uptake in the ALK-positive H2228 cells”. For the same compound, in data set [4] (water or saline), the “solubility in water or saline” value is “insoluble”.
